Reference: US12590066B2, “Fused-heterocyclyl-carbonohydrazonoyl dicyanide compounds and use thereof” (KOREA INSTITUTE OF SCIENCE AND TECHNOLOGY, priority 2020, dated 2026)

How the values were obtained:
tau protein = molecular target: T1, tau protein (Homo sapiens, UniProt P10636); assay: Tau-BiFC cell model, inhibition of Forskolin-induced tau protein aggregation; assay type: cell-based; conditions: Forskolin 30 μM, 48 hours; for Tau BiFC in cells Response (% @10 μM): 10 μM compound, Forskolin-only group = 100% tau protein-aggregated state; for IC50: tau-BiFC cells
T1 construct: BiFC fluorescent-protein fragments (type and halves not specified); expressed in transfected cells
T1 sequence (P10636 1-441 isoform P10636-8): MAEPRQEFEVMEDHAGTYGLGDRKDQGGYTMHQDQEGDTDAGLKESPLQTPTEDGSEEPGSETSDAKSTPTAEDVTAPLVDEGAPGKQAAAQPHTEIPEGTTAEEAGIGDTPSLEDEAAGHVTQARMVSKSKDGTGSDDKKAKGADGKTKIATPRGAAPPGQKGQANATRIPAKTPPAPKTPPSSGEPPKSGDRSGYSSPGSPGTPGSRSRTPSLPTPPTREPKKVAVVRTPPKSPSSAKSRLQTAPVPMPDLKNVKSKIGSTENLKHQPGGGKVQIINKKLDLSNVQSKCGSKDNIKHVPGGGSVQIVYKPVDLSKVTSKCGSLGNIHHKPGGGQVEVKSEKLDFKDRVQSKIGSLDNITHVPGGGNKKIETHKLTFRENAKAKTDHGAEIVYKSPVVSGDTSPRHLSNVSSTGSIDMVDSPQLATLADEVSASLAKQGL
Experimental: In order to select novel tau protein aggregation-inhibiting substances, tau-BiFC cell model, in which formation of tau oligomers in living cells is easily observed, was used. Tau-BiFC cells were aliquoted into a 384-well plate. On the next day, the cells were treated with each of the compounds prepared according to Examples 1 to 57 at concentrations of 1 μM, 3 μM, and 10 μM, together with Forskolin (at a treatment concentration of 30 μM), which is a compound inducing tau protein aggregation by activating tau phosphorylase PKA. After 48 hours, nuclei in the cells were stained using Hoechst (at a treatment concentration of 2 μg/mL), and BiFC fluorescence intensity was automatically measured using Operetta (PerkinElmer) to count stained nuclei in each well out of the entire well plate. The group treated only with Forskolin, which induces tau protein aggregation, was set to a reference point of a 100% tau protein-aggregated state, and the effects of the compounds were confirmed using the equation “BiFC fluorescence intensity due to compound synthesized according to embodiment of present invention/(fluorescence intensity of control group treated only with Forskolin inducing tau protein aggregation−fluorescence intensity of untreated control group)×100”. Furthermore, the degree of cytotoxicity induced by the newly synthesized compound was also measured based on the 100% cell viability of the group treated only with Forskolin as a reference, and the cytotoxicity value of each compound was calculated using the equation “(number of stained nuclei in group treated with compound/number of stained nuclei in group treated with Forskolin)×100”. Based on the treatment results, substances inhibiting intracellular tau protein aggregation were selected from a series of candidate groups showing a tau protein aggregation inhibition rate of 70% or more and cell viability of 100% at a compound treatment concentration of 10 μM or more.
In order to evaluate dose-dependent tau protein aggregation inhibition effects of the compounds selected according to Experimental Example 1 on tau protein aggregation, tau-BiFC cells were treated with the selected compounds at concentrations of 0.03 μM, […], 0.3 μM, 1 μM, 3 μM, 10 μM, and 30 μM, respectively, together with Forskolin (at a treatment concentration of 30 μM), which is a tau protein aggregation-inducing substance. After 48 hours, tau protein aggregation reaction and degrees of cytotoxicity were analyzed by observing images of the cells. IC50 and toxicity of the compounds were analyzed by way of nonlinear regression analysis of prism software (Graph Pad).

Tau-BiFC cells = assay: Cell viability (stained nuclei count) in Tau-BiFC cells; assay type: cell-based; conditions: 10 μM compound, 48 hours; Forskolin-only group = 100% cell viability
Experimental: In order to select novel tau protein aggregation-inhibiting substances, tau-BiFC cell model, in which formation of tau oligomers in living cells is easily observed, was used. Tau-BiFC cells were aliquoted into a 384-well plate. On the next day, the cells were treated with each of the compounds prepared according to Examples 1 to 57 at concentrations of 1 μM, 3 μM, and 10 μM, together with Forskolin (at a treatment concentration of 30 μM), which is a compound inducing tau protein aggregation by activating tau phosphorylase PKA. After 48 hours, nuclei in the cells were stained using Hoechst (at a treatment concentration of 2 μg/mL), and BiFC fluorescence intensity was automatically measured using Operetta (PerkinElmer) to count stained nuclei in each well out of the entire well plate. The group treated only with Forskolin, which induces tau protein aggregation, was set to a reference point of a 100% tau protein-aggregated state, and the effects of the compounds were confirmed using the equation “BiFC fluorescence intensity due to compound synthesized according to embodiment of present invention/(fluorescence intensity of control group treated only with Forskolin inducing tau protein aggregation−fluorescence intensity of untreated control group)×100”. Furthermore, the degree of cytotoxicity induced by the newly synthesized compound was also measured based on the 100% cell viability of the group treated only with Forskolin as a reference, and the cytotoxicity value of each compound was calculated using the equation “(number of stained nuclei in group treated with compound/number of stained nuclei in group treated with Forskolin)×100”. Based on the treatment results, substances inhibiting intracellular tau protein aggregation were selected from a series of candidate groups showing a tau protein aggregation inhibition rate of 70% or more and cell viability of 100% at a compound treatment concentration of 10 μM or more. […]

| SMILES | Tau BiFC in cells Response (% @10 μM) (tau protein) [%] | Cell viability (% @10 μM) (Tau-BiFC cells) [%] | IC50 (tau protein) [nM] |
| --- | --- | --- | --- |
| COc1cc2c(cc1NN=C(C#N)C#N)n(C)c(=O)n2C [Compound 32, (6-methoxy-1,3-dimethyl-2-oxo-2,3-dihydro-1H-benzo[d]imidazol-5-yl)carbonohydrazonoyl dicyanide] | 38 | 132 |  |
| Cn1c(=O)n(C)c2cc(NN=C(C#N)C#N)c(F)cc21 [Compound 9, (6-fluoro-1,3-dimethyl-2-oxo-2,3-dihydro-1H-benzo[d]imidazol-5-yl)carbonohydrazonoyl dicyanide] | 0 | 155.3 | 170 |
| CC(C)n1c(=O)n(C)c2ncc(NN=C(C#N)C#N)cc21 [Compound 45, (1-isopropyl-3-methyl-2-oxo-2,3-dihydro-1H-imidazo[4,5-b]pyridin-6-yl)carbonohydrazonoyl dicyanide] | −24 | 113 | 200 |
| CCn1c(=O)n(C2CC2)c2ncc(NN=C(C#N)C#N)cc21 [Compound 52, (3-cyclopropyl-1-ethyl-2-oxo-2,3-dihydro-1H-imidazo[4,5-b]pyridin-6-yl)carbonohydrazonoyl dicyanide] | −30 | 133 | 200 |
| CCn1c(=O)n(C)c2ncc(NN=C(C#N)C#N)cc21 [Compound 44, (1-ethyl-3-methyl-2-oxo-2,3-dihydro-1H-imidazo[4,5-b]pyridin-6-yl)carbonohydrazonoyl dicyanide] | 10 | 138 |  |
| N#CC(C#N)=NNc1ccc2oc(=O)n(C(F)F)c2c1 [Compound 30, (3-(difluoromethyl)-2-oxo-2,3-dihydrobenzo[d]oxazol-5-yl)carbonohydrazonoyl dicyanide] | 36 | 127 |  |
| Cn1c(=O)oc2ccc(NN=C(C#N)C#N)cc21 [Compound 28, (3-methyl-2-oxo-2,3-dihydrobenzo[d]oxazol-5-yl)carbonohydrazonoyl dicyanide] | 13 | 134 |  |
| Cn1c(=O)n(C(F)F)c2cc(NN=C(C#N)C#N)cnc21 [Compound 46, (1-(difluoromethyl)-3-methyl-2-oxo-2,3-dihydro-1H-imidazo[4,5-b]pyridin-6-yl)carbonohydrazonoyl dicyanide] | 23 | 131 |  |
| CCn1c(=O)n(C(F)F)c2cc(NN=C(C#N)C#N)cnc21 [Compound 50, (1-(difluoromethyl)-3-ethyl-2-oxo-2,3-dihydro-1H-imidazo[4,5-b]pyridin-6-yl)carbonohydrazonoyl dicyanide] | 2 | 119 |  |
| N#CC(C#N)=NNc1ccc2[nH]c(=O)ccc2c1 [Compound 8, (2-oxo-1,2-dihydroquinolin-6-yl)carbonohydrazonoyl dicyanide] | 0 | 152.5 | 430 |
| CCn1c(=O)n(C(F)F)c2cc(NN=C(C#N)C#N)ccc21 [Compound 39, (3-(difluoromethyl)-1-ethyl-2-oxo-2,3-dihydro-1H-benzo[d]imidazol-5-yl)carbonohydrazonoyl dicyanide] | −45 | 106 | 10 |
| Cn1c(=O)n(C2CC2)c2ncc(NN=C(C#N)C#N)cc21 [Compound 51, (3-cyclopropyl-1-methyl-2-oxo-2,3-dihydro-1H-imidazo[4,5-b]pyridin-6-yl)carbonohydrazonoyl dicyanide] | −11 | 137 | 660 |
| Cc1cc2c(cc1NN=C(C#N)C#N)n(C)c(=O)n2C [Compound 31, (1,3,6-trimethyl-2-oxo-2,3-dihydro-1H-benzo[d]imidazol-5-yl)carbonohydrazonoyl dicyanide] | 47 | 119 |  |
| Cn1c(=O)ccc2cc(NN=C(C#N)C#N)ccc21 [Compound 25, (1-methyl-2-oxo-1,2-dihydroquinolin-6-yl)carbonohydrazonoyl dicyanide] | −16 | 118 | 20 |
| CCn1c(=O)n(C(C)C)c2cc(NN=C(C#N)C#N)cnc21 [Compound 49, (3-ethyl-1-isopropyl-2-oxo-2,3-dihydro-1H-imidazo[4,5-b]pyridin-6-yl)carbonohydrazonoyl dicyanide] | −34 | 139 | 50 |
| Cn1c(=O)n(-c2ccccc2)c2cc(NN=C(C#N)C#N)cnc21 [Compound 47, (3-methyl-2-oxo-1-phenyl-2,3-dihydro-1H-imidazo[4,5-b]pyridin-6-yl)carbonohydrazonoyl dicyanide] | 13 | 117 |  |
| CCn1c(=O)n(C2CC2)c2ccc(NN=C(C#N)C#N)cc21 [Compound 41, (1-cyclopropyl-3-ethyl-2-oxo-2,3-dihydro-1H-benzo[d]imidazol-5-yl)carbonohydrazonoyl dicyanide] | −54 | 112 | 20 |
| CC(C)n1c(=O)n(C)c2cc(NN=C(C#N)C#N)cnc21 [Compound 54, (3-isopropyl-1-methyl-2-oxo-2,3-dihydro-1H-imidazo[4,5-b]pyridin-6-yl)carbonohydrazonoyl dicyanide] | −38 | 118 | 300 |
| Cc1cc(=O)[nH]c2ccc(NN=C(C#N)C#N)cc12 [Compound 26, (4-methyl-2-oxo-1,2-dihydroquinolin-6-yl)carbonohydrazonoyl dicyanide] | −5 | 120 | 770 |
| Cn1c(=O)n(C2CC2)c2ccc(NN=C(C#N)C#N)cc21 [Compound 40, (1-cyclopropyl-3-methyl-2-oxo-2,3-dihydro-1H-benzo[d]imidazol-5-yl)carbonohydrazonoyl dicyanide] | −38 | 122 | 30 |
| N#CC(C#N)=NNc1ccc2cc[nH]c(=O)c2c1 [Compound 1, (1-oxo-1,2-dihydroisoquinolin-7-yl)carbonohydrazonoyl dicyanide] | 0 | 152.9 | 130 |
